Tests used:
Format in all cases: cell-based
[1] = test system: Human Glioma cancer cell line U251; assay: Cell Proliferation Assay by CCK-8 Reagent; details: Homo sapiens, U-251, 72 h, U251 cells, 72 hours incubation, CCK-8, % viability vs vehicle control
Procedure: Human Glioma cancer cell line U251 was maintained in DMEM (Gibco, Cat #10569-10) supplemented with 10% fetal bovine serum inactivated at 56° C. (Gibco, Cat #10082-147), 100 U/mL penicillin, and 100 μg/mL streptomycin (Gibco, Cat #15140-122) at 37° C. and 1% MEM non-essential amino acid (Sigma, Cat #M7145) in a humid atmosphere containing 5% CO2. The cells were seeded at 2.5×10^3 cells/well in a 96 well plate (BD falcon, Cat #353072) with 200 pt volume/well and kept in 37° C./5% CO2 incubator for 0/N incubation. The seeding density was optimized previously based on growth curve. On the next day, plated cells were incubated with each test compounds at eight different concentrations (100, 50, 25, 12.5, 6.25, 3.125, 1.5 and 0.78) in triplicates. DMSO was used as a Vehicle control and Culture medium was used as blank control for the assay in each plate. The percentage of DMSO was kept uniform across the plate as <1%. The compound treated cells were incubated in 37° C./5% CO2 incubator for 72 hours. After incubation period, […] CCK-8 reagent (Dojindo, Cat #CK04) was added in all the wells and plate was kept in 37° C./5% CO2 incubator for 3 hours. After CCK-8 incubation, absorbance was measured @ 450 nm using Spectrophotometer (BMG, Omega Polar Star). % Viability values at each concentration were calculated with respect to Vehicle control and EC50 values were calculated using graph pad prism software and are shown in Table A.

Cav3.1 = Cav3.1 (Homo sapiens (Human), UniProt O43497); assay: Whole-cell voltage clamp recording, HEK293 cells expressing T-type channel Cav3.1; details: holding potential −100 mV, depolarized to −30 mV for 100 ms, room temperature
Procedure: (§1) Whole-cell voltage clamp recordings were performed on cultured HEK293 cells expressing T-type channels (encoded by Cav3.1, Cav3.2, or Cav3.3 channels). All experiments were performed at room temperature. Whole-cell currents were recorded using a MultiClamp 700B amplifier and analyzed offline with pCLAMP10.4 software (Molecular Devices, LLC, Sunnyvale Calif., USA). […] Test compounds were usually applied via a rapid solution exchange system with 8 fine polyplastic tubings glued in a holder in parallel and located closely to the recorded cells. The current responses were normalized to the control, percent inhibition was calculated and sigmoidal dose-response curettes we're generated using XLFIT (IDBS, Surrey, UK) or Prism (GraphPad Software, LA Jola, Calif., US) to calculate IC50 values and Hill slopes using the following equation Y=Bottom+(Top−Bottom)/1+10{circumflex over (()}(Log EC50−X)−HillsSlope)). IC50 values are given in micromolar units.

Cav3.3 = Cav3.3 (Homo sapiens (Human), UniProt Q9P0X4); assay: Whole-cell voltage clamp recording, HEK293 cells expressing T-type channel Cav3.3; details: holding potential −100 mV, depolarized to −30 mV for 100 ms, room temperature
Sequence of Cav3.3 (Q9P0X4 whole entry, species assumed): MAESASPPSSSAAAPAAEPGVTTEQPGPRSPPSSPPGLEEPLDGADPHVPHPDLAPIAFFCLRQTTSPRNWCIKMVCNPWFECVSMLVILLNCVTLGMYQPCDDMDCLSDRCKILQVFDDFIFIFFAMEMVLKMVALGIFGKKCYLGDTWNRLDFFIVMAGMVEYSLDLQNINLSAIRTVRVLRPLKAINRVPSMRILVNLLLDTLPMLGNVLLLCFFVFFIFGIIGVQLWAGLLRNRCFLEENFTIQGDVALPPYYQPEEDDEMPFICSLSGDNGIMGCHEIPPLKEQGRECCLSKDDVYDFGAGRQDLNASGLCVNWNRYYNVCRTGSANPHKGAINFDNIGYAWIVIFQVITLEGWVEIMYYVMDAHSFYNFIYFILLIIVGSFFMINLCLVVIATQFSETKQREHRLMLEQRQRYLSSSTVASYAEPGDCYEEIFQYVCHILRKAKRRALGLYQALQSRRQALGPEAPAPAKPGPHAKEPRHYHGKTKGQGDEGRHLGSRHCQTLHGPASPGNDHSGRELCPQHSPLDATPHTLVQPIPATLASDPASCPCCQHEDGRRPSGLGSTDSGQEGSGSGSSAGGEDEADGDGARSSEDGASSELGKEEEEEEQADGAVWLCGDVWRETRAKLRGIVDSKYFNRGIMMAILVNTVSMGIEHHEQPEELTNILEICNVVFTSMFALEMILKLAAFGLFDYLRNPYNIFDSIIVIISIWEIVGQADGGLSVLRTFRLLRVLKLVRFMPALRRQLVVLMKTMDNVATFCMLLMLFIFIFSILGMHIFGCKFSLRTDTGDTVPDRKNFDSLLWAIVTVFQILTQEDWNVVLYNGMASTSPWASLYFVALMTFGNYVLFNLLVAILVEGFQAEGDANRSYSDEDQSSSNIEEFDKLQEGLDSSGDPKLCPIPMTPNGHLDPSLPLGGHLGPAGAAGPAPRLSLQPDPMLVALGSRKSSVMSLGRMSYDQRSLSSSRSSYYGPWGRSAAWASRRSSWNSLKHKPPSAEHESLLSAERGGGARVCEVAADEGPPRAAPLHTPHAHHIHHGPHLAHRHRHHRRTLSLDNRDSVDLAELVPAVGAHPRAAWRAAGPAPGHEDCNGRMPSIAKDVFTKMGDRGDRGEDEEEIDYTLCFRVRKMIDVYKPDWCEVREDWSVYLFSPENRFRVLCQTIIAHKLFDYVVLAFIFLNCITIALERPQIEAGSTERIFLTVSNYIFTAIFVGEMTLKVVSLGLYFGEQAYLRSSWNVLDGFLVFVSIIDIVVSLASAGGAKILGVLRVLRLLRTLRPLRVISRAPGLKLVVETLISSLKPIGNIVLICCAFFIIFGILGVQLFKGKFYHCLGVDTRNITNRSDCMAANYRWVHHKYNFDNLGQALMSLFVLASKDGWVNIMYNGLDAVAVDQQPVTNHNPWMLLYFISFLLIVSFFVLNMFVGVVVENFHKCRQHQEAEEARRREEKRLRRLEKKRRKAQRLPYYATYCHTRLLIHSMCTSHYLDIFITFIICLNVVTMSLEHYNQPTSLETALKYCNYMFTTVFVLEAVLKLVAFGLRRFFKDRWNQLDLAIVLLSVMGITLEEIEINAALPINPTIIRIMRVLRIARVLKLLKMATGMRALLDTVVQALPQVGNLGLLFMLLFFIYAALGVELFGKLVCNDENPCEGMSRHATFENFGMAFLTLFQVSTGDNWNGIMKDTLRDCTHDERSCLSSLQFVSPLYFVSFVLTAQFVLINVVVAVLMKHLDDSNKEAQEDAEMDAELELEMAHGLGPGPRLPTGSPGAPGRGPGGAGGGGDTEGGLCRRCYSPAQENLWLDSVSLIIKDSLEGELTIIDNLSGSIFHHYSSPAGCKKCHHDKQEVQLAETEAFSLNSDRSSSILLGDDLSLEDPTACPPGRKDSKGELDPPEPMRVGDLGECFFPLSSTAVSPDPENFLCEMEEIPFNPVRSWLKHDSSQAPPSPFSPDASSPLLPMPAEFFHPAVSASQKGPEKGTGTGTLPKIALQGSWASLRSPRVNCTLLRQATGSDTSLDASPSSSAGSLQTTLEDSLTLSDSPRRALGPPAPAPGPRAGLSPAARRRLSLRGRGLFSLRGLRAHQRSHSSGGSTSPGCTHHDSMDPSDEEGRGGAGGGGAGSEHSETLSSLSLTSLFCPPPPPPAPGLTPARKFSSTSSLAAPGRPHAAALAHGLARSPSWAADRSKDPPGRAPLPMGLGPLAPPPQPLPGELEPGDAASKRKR
Procedure: as §1

Cav3.2 = Cav3.2 (Homo sapiens (Human), UniProt O95180); assay: Whole-cell voltage clamp recording, HEK293 cells expressing T-type channel Cav3.2; details: holding potential −100 mV, depolarized to −30 mV for 100 ms, room temperature
Sequence of Cav3.2 (O95180 whole entry): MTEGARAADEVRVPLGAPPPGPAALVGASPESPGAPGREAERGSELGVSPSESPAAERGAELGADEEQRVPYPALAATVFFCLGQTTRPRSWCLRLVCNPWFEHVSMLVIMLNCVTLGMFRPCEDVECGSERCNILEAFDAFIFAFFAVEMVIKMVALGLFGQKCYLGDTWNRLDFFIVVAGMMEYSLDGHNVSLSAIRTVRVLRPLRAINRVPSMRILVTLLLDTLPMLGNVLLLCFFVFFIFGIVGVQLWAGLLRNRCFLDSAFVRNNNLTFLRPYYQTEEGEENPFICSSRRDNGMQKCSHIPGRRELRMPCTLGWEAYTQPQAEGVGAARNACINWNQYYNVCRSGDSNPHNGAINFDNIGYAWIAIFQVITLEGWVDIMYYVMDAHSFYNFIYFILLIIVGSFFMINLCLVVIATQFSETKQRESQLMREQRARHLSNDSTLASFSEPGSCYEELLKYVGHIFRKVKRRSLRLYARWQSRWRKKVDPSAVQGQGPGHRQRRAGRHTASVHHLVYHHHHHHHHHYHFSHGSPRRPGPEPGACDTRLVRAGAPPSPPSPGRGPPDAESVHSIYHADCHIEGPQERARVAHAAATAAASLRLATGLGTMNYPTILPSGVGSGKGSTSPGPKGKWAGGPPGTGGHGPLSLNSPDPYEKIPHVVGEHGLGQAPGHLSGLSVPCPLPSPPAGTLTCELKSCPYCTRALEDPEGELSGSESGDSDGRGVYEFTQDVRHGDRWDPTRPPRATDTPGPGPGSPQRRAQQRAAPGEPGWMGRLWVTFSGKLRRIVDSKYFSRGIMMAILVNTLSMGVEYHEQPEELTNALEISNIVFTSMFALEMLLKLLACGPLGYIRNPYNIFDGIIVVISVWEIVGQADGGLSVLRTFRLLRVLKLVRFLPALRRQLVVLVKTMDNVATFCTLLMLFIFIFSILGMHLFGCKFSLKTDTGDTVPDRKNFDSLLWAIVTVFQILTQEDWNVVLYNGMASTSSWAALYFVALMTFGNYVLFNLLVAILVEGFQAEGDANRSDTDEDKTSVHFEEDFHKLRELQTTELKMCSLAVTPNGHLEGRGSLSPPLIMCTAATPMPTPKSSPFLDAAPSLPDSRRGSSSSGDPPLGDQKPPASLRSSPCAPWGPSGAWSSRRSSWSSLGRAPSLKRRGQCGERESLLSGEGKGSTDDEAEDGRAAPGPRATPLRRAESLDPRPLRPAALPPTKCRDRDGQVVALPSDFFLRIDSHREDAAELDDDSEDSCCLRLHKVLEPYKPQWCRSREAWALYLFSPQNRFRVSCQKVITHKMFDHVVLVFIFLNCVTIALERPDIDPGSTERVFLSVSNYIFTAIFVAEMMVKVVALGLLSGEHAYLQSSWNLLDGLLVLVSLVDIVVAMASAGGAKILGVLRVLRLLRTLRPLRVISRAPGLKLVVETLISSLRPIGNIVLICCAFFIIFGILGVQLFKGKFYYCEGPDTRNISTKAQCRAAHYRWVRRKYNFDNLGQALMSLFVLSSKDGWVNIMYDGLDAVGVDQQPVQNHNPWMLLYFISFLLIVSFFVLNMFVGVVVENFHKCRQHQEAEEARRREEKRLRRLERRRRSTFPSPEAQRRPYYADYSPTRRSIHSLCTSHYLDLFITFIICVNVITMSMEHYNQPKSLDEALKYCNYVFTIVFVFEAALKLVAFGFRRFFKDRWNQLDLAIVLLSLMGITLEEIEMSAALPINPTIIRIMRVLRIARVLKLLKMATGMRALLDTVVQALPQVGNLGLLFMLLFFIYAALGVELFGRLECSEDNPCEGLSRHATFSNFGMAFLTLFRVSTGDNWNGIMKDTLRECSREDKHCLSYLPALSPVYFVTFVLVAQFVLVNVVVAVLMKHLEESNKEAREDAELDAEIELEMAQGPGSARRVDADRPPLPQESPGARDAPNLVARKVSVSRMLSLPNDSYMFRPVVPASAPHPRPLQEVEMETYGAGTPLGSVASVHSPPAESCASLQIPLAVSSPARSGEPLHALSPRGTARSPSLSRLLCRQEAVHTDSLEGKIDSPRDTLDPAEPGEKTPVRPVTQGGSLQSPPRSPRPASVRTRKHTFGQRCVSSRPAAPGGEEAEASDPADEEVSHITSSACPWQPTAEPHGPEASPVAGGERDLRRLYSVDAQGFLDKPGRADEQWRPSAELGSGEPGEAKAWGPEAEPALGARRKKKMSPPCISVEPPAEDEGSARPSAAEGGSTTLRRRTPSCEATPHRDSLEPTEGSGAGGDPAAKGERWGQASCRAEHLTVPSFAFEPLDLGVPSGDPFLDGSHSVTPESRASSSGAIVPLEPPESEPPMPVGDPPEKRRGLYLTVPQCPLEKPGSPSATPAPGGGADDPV
Procedure: as §1

EC50 [1]: 4.8 µM
IC50 (Cav3.1): 139 nM
IC50 (Cav3.3): 212 nM
IC50 (Cav3.2): 335 nM
SMILES: Cc1ccc(C)c2[nH]c(CCCN(C)CC[C@@]3(OC(=O)N4CCOCC4)CCc4cc(F)ccc4[C@@H]3C(C)C)nc12 [Example 15, (1S,2S)-2-(2-((3-(4,7-Dimethyl-1H-benzo[d]imidazol-2-yl)propyl)(methyl)amino)ethyl)-6-fluoro-1-isopropyl-1,2,3,4-tetrahydronaphthalen-2-yl morpholine-4-carboxylate]

Source: patent publication US11130750B2, “Calcium channel inhibitors” (Cavion, Inc., priority 2017, dated 2021)
